Laboratory results published in PMC7531004, “Discovery of gramicidin A analogues with altered activities by multidimensional screening of a one-bead-one-compound library” (Nature Communications, 2020).
Values joined by “and” are separate entries in the source; they are usually repeats but may differ in a detail not shown here. Equal entries are not always repeated. Where two headings read alike, the source gives them in different places. Where a SMILES comes first, the peptide text is derived from it. [ ]: non-standard residue; d: D form. The star is where a group is joined. NHCH2CH2OH = OCCN*; For = O=C*

Assays:
[1] = system: MSSA1 (methicillin-susceptible Staphylococcus aureus); assay type: cell-based
Procedure: Evaluation of antibacterial spectra of purified peptides. The MIC assay was performed according to the Clinical and Laboratory Standards Institute protocols. The antibacterial activities of the purified peptides A1, B01–B04, B11–B13, B21, and B22 were measured using the broth microdilution method. 6 Serial dilutions of the peptides were prepared in cation adjusted Mueller Hinton Broth. Each dilution (100 µL) was dispensed to each well of the round-bottom plate to obtain final concentrations ranging from 64 µg/mL to 0.00024 µg/mL. Bacteria were grown at 37 °C overnight on Tryptic Soy Broth or Mueller Hinton Broth agar plates.
The bacterial colonies were suspended in 0.9% saline to obtain OD 625 of 0.08–0.13 using a spectrophotometer UV-1280 (Shimadzu). The resultant suspension was diluted with cation adjusted Mueller Hinton Broth (1/20). The resultant mixture (10 .0 µL) was inoculated to each well of the plates (approximately 5 × 10^4 CFU/well), mixed, and incubated at 37 °C for 18–24 h. The MIC value was determined as the minimum concentration that inhibited growth of bacteria. For Streptococcus species, cation adjusted Mueller Hinton Broth supplemented with 5% laked horse blood was used. […]

[2] = system: P388 mouse leukemia cell line; settings: for IC50: 2 h
rabbit red blood cells = settings: red cells of rabbit, 2 h
Procedure: Second, we examined the cytotoxicity toward mammalian cancer cells and hemolytic activity of 1. […] Hemolytic activity was evaluated by monitoring hemoglobin leakage from rabbit red blood cells as a consequence of membrane damage. The concentration of 1 required to cause 10% hemoglobin leakage (HC10) was 160 nM. Thus, the P388 cytotoxicity of 1 was 28-fold more sensitive than its hemolytic activity.
Hemolysis assay of purified peptides. […]
with DMSO to various concentrations as 3-fold serial dilution. A 50% suspension of rabbit blood in Alsever's solution was obtained from Nippon Bio -Supp. Center . The blood suspension (250 µL) w as diluted with phosphate buffered saline (no calcium, no magnesium, 1.00 mL). The resultant suspension was centrifuged at 1000 × g for 3 min at 8 °C. The supernatant was discarded, and the collected cells were resuspended in phosphate buffered saline (no calcium, no magnesium, 1.00 mL). The same procedure was repeated (× 3). The resultant suspension (100 µL) was diluted with phosphate buffered saline (no calcium, no magnesium, 4.90 mL) to give 0.2% red blood cells suspension. The 0.2% red blood cells suspension (95.0 µL) and each dilution series of the purified peptide in DMSO (5 .0 µL) were mixed in 2 mL microtube.
supernatant was transferred to a 96-well plate (TR5003, TrueLine). The absorbance of each well at 415 nm was measured using a Thermo Scientific Multiskan GO (Thermo Fisher Scientific). The mixture of Triton X-100/H2O (5/95, 2.0 µL), DMSO (5.0 µL), and the 0.2% red blood cells suspension (95.0 µL) was used to determine 100% hemolysis. The mixture of DMSO (5.0 µL) and the 0.2% red blood cells suspension (95.0 µL) was used to determine 0% hemolysis. The hemolytic activities of tested peptides ( I) were normalized against 100% hemolysis by Triton X -100 (Imax) and 0% hemolysis by DMSO (I0) according to Supplementary Equation 3, where Ix is the UV absorbance.
I = 100 × (Ix – I0) / (Imax – I0) (3)
The hemolytic activities of the purified peptides were evaluated as the concentrations causing 10% hemolysis (HC10, nM) by means of three replicates. Sigmoidal curve fittings were performed on GraphPad Prism (GraphPad software, Supplementary Figure 7).

[3] = system: Streptococcus pyogenes SSI-9; test: Antibacterial activity assay of bead-derived peptides (three concentrations); assay type: cell-based; design: key: +++: inhibition by the 640-fold diluted peptide solution; ++: inhibition by the 160-fold diluted solution; +: inhibition by the 40-fold diluted solution; -: no inhibition; settings: S. pyogenes
Outline: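 First, each peptide stock was diluted 4- and 16-fold in DMSO; next, the three solutions were mixed with S. pyogenes SSI-9 suspension (2 × 10^5 CFU) in cation-adjusted Mueller Hinton Broth plus 5% laked horse blood; finally, plates stood 18 h at 37 °C before checking for grown-cell precipitation.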

[4] = H+/Na+ transport assay of purified peptides; settings: for Supplementary Figure 5 dose-response value (H+/Na+ transport): three replicate lines
Procedure: First, we evaluated the ion channel function of 1 using liposomes. To mimic a negatively charged Gram-positive bacterial membrane, the liposomes were prepared as large unilamellar vesicles (LUVs) comprising a 19:1 mixture of egg yolk phosphatidylcholine (EYPC) and egg yolk phosphatidylglycerol (EYPG)[57]. Pyranine, a pH-dependent fluorescent dye[58], was encapsulated in the LUVs and a pH gradient was applied across the membrane. H^+/Na^+ transport induced by a peptide was monitored by changes in the fluorescence intensity of pyranine.

[5] = read-out: EC50, H+/Na+ transport assay, 1st experiment
[6] = read-out: EC50, H+/Na+ transport assay, 2nd experiment
[7] = read-out: EC50, H+/Na+ transport assay, 3rd experiment
[8] = read-out: H+/Na+ transport activity EC50, EYPC/EYPG (19:1) LUVs
[9] = read-out: H+/Na+ transport activity/EC50, mean ± SD of three independent experiments

Structure (SMILES): CC(C)C[C@@H](NC(=O)[C@H](C)NC(=O)CNC(=O)[C@@H](NC=O)C(C)C)C(=O)N[C@@H](C)C(=O)N[C@@H](C(=O)N[C@H](C(=O)N[C@@H](C(=O)N[C@@H](Cc1c[nH]c2ccccc12)C(=O)N[C@H](CC(C)C)C(=O)N[C@@H](Cc1c[nH]c2ccccc12)C(=O)N[C@H](CC(C)C)C(=O)N[C@@H](Cc1c[nH]c2ccccc12)C(=O)N[C@H](CC(C)C)C(=O)N[C@@H](Cc1c[nH]c2ccccc12)C(=O)NCCO)C(C)C)C(C)C)C(C)C [compound 1, Gramicidin A] (For-VGA[dL]A[dV]V[dV]W[dL]W[dL]W[dL]W-NHCH2CH2OH)
- antibacterial activity/MIC [1]: 32 µg/mL
- IC99.6 value (threshold concentration of one-point cytotoxicity assay) [2]: 30 nM
- P388 cytotoxicity more sensitive than hemolytic activity [2]: 28 fold
- Hemolytic activity HC10 (concentration causing 10% hemolysis) (rabbit red blood cells): 160 nM
- antibacterial activity in the library screening [3]: ++ or +
- antibacterial activity ([3]; bead-derived peptide solution, three concentrations): -
- EC55.2 value (threshold concentration of one-point ion transport assay) ([4]; H+/Na+ transport): 5.9 nM
- Supplementary Figure 5 dose-response value (H+/Na+ transport) ([4]; concentration 0.000512 nM): 0.1393 and -1.026 and 0.8168
- Supplementary Figure 5 dose-response value (H+/Na+ transport) ([4]; concentration 0.00256 nM): 2.399 and 0.2926 and 2.304
- Supplementary Figure 5 dose-response value (H+/Na+ transport) ([4]; concentration 0.0128 nM): 3.982 and 3.019 and 2.7829
- Supplementary Figure 5 dose-response value (H+/Na+ transport) ([4]; concentration 0.064 nM): 7.464 and 5.495 and 5.604
- Supplementary Figure 5 dose-response value (H+/Na+ transport) ([4]; concentration 0.32 nM): 9.988 and 12.6133 and 15.027
- Supplementary Figure 5 dose-response value (H+/Na+ transport) ([4]; concentration 1.6 nM): 25.261 and 17.8892 and 24.5099
- Supplementary Figure 5 dose-response value (H+/Na+ transport) ([4]; concentration 8 nM): 43.5648 and 41.9563 and 41.0019
- Supplementary Figure 5 dose-response value (H+/Na+ transport) ([4]; concentration 40 nM): 66.4966 and 62.6758 and 58.9306
- Supplementary Figure 5 dose-response value (H+/Na+ transport) ([4]; concentration 200 nM): 70.2683 and 64.7328 and 64.4099
- Supplementary Figure 5 dose-response value (H+/Na+ transport) ([4]; concentration 1000 nM): 68.3656 and 69.2628 and 73.7672
- Supplementary Figure 5 dose-response value (H+/Na+ transport) ([4]; concentration 5000 nM): 72.2926 and 68.3983 and 71.8941
- EC50 [4, 5]: 4.66 nM
- EC50 [4, 6]: 3.91 nM
- EC50 [4, 7]: 4.81 nM
- EC50 [4, 8]: 4.5 nM
- EC50 [4, 9]: 4.46 ± 0.48 nM

Structure (SMILES): CNC(=O)C[C@@H](NC(=O)[C@@H](NC(=O)[C@@H](CC(C)C)NC(=O)[C@H](C)NC(=O)[C@@H](CC(C)C)NC(=O)[C@H](C)NC(=O)CNC(=O)[C@@H](NC=O)C(C)C)C(C)C)C(=O)N[C@@H](Cc1c[nH]c2ccccc12)C(=O)N[C@H](CC(C)C)C(=O)N[C@@H](Cc1c[nH]c2ccccc12)C(=O)N[C@H](CC(C)C)C(=O)N[C@@H](Cc1c[nH]c2ccccc12)C(=O)N[C@@H](C(=O)N[C@@H](Cc1c[nH]c2ccccc12)C(=O)NCCO)[C@H](C)O [B22] (For-VGA[dL]A[dL]V[dD](NHMe)W[dL]W[dL]W[dT]W-NHCH2CH2OH)
- antibacterial activity/MIC [1]: > 64 µg/mL
- IC50 [2]: > 1000 nM
- Hemolytic activity HC10 (concentration causing 10% hemolysis) (rabbit red blood cells): > 3000 nM
- antibacterial activity in the library screening [3]: Neither of these peptides exhibited growth inhibition activity
- Supplementary Figure 5 dose-response value (H+/Na+ transport) ([4]; concentration 0.000512 nM): 3.488 and 0.6119 and 2.737
- Supplementary Figure 5 dose-response value (H+/Na+ transport) ([4]; concentration 0.00256 nM): 2.255 and -0.3059 and 2.73
- Supplementary Figure 5 dose-response value (H+/Na+ transport) ([4]; concentration 0.0128 nM): 4.874 and 2.041 and 3.252
- Supplementary Figure 5 dose-response value (H+/Na+ transport) ([4]; concentration 0.064 nM): 5.2777 and 5.073 and 4.243
- Supplementary Figure 5 dose-response value (H+/Na+ transport) ([4]; concentration 0.32 nM): 9.536 and 13.0972 and 10.1736
- Supplementary Figure 5 dose-response value (H+/Na+ transport) ([4]; concentration 1.6 nM): 28.0205 and 30.7244 and 31.4442
- Supplementary Figure 5 dose-response value (H+/Na+ transport) ([4]; concentration 8 nM): 63.0425 and 64.573 and 66.6211
- Supplementary Figure 5 dose-response value (H+/Na+ transport) ([4]; concentration 40 nM): 71.1735 and 74.4694 and 76.8331
- Supplementary Figure 5 dose-response value (H+/Na+ transport) ([4]; concentration 200 nM): 80.49 and 75.6285 and 73.1074
- Supplementary Figure 5 dose-response value (H+/Na+ transport) ([4]; concentration 1000 nM): 79.8358 and 79.3757 and 78.5441
- Supplementary Figure 5 dose-response value (H+/Na+ transport) ([4]; concentration 5000 nM): 88.1657 and 79.255 and 76.0319
- EC50 [4, 5]: 2.49 nM
- EC50 [4, 6]: 2.93 nM
- EC50 [4, 7]: 1.94 nM
- EC50 [4, 8]: 2.5 nM
- EC50 [4, 9]: 2.45 ± 0.5 nM

Structure (SMILES): CC(C)C[C@@H](NC(=O)[C@H](C)NC(=O)CNC(=O)[C@@H](NC=O)C(C)C)C(=O)N[C@@H](C)C(=O)N[C@@H](C(=O)N[C@H](C(=O)N[C@@H](C(=O)N[C@@H](Cc1c[nH]c2ccccc12)C(=O)N[C@H](CC(C)C)C(=O)N[C@@H](Cc1c[nH]c2ccccc12)C(=O)N[C@H](CC(C)C)C(=O)N[C@@H](Cc1c[nH]c2ccccc12)C(=O)N[C@H](CC(C)C)C(=O)N[C@@H](Cc1c[nH]c2ccccc12)C(=O)NCCO)[C@H](C)O)C(C)C)C(C)C [B13] (For-VGA[dL]A[dV]V[dT]W[dL]W[dL]W[dL]W-NHCH2CH2OH)
- antibacterial activity/MIC [1]: 8 µg/mL
- IC50 [2]: > 1000 nM
- Hemolytic activity HC10 (concentration causing 10% hemolysis) (rabbit red blood cells): > 3000 nM
- Supplementary Figure 5 dose-response value (H+/Na+ transport) ([4]; concentration 0.000512 nM): 3.017 and 1.952 and 2.608
- Supplementary Figure 5 dose-response value (H+/Na+ transport) ([4]; concentration 0.00256 nM): 3.102 and 3.766 and 3.197
- Supplementary Figure 5 dose-response value (H+/Na+ transport) ([4]; concentration 0.0128 nM): 2.802 and 3.448 and 5.087
- Supplementary Figure 5 dose-response value (H+/Na+ transport) ([4]; concentration 0.064 nM): 7.573 and 8.7038 and 6.571
- Supplementary Figure 5 dose-response value (H+/Na+ transport) ([4]; concentration 0.32 nM): 17.1662 and 17.5754 and 16.2478
- Supplementary Figure 5 dose-response value (H+/Na+ transport) ([4]; concentration 1.6 nM): 34.5009 and 38.0687 and 36.068
- Supplementary Figure 5 dose-response value (H+/Na+ transport) ([4]; concentration 8 nM): 62.5081 and 62.2715 and 60.6584
- Supplementary Figure 5 dose-response value (H+/Na+ transport) ([4]; concentration 40 nM): 69.7421 and 65.8817 and 68.9295
- Supplementary Figure 5 dose-response value (H+/Na+ transport) ([4]; concentration 200 nM): 70.9489 and 69.9169 and 66.3002
- Supplementary Figure 5 dose-response value (H+/Na+ transport) ([4]; concentration 1000 nM): 70.4102 and 68.4527 and 68.0392
- Supplementary Figure 5 dose-response value (H+/Na+ transport) ([4]; concentration 5000 nM): 77.0905 and 71.4732 and 77.0208
- EC50 [4, 5]: 1.54 nM
- EC50 [4, 6]: 1.6 nM
- EC50 [4, 7]: 1.51 nM
- EC50 [4, 8]: 1.6 nM
- EC50 [4, 9]: 1.55 ± 0.04 nM
